From ChEMBL document CHEMBL4390652, “Design, biological evaluation and X-ray crystallography of nanomolar multifunctional ligands targeting simultaneously acetylcholinesterase and glycogen synthase kinase-3” (Eur J Med Chem, 2019)

Experiments:
[1] = target: Calcium/calmodulin-dependent protein kinase type II subunit beta (Homo sapiens) (UniProt Q13554); assay: Binding affinity to wild-type human partial length CAMK2B (M1 to Q380 residues) expressed in bacterial expression system assessed as residual binding level at 10 uM by Kinomescan method relative to control
[2] = target: Tyrosine-protein kinase Lck (Homo sapiens) (UniProt P06239); assay: Binding affinity to wild-type human partial length LCK (R207 to P509 residues) expressed in bacterial expression system assessed as residual binding level at 10 uM by Kinomescan method relative to control
[3] = target: Serine/threonine-protein kinase pim-1 (Homo sapiens) (UniProt P11309); assay: Binding affinity to wild-type human partial length PIM1 (A15 to K313 residues) expressed in bacterial expression system assessed as residual binding level at 10 uM by Kinomescan method relative to control
[4] = target: Serine/threonine-protein kinase PLK3 (Homo sapiens) (UniProt Q9H4B4); assay: Binding affinity to wild-type human partial length PLK3 (A42 to L334 residues) expressed in mammalian expression system assessed as residual binding level at 10 uM by Kinomescan method relative to control
[5] = system: Phosphatidylinositol 4,5-bisphosphate 3-kinase catalytic subunit alpha isoform (Homo sapiens), P42336 [E545K]; assay: Binding affinity to human partial length PIK3CA E545K mutant (R108 to N1068 residues) expressed in mammalian expression system assessed as residual binding level at 10 uM by Kinomescan method relative to control
[6] = target: Serine/threonine-protein kinase N1 (Homo sapiens) (UniProt Q16512); assay: Binding affinity to wild-type human partial length PKN1 (E598 to C948 residues) expressed in bacterial expression system assessed as residual binding level at 10 uM by Kinomescan method relative to control
[7] = target: Mitogen-activated protein kinase kinase kinase 1 (Homo sapiens) (UniProt Q13233); assay: Binding affinity to wild-type human partial length MAP3K1 (L1202 to W1512 residues) expressed in mammalian expression system assessed as residual binding level at 10 uM by Kinomescan method relative to control
[8] = target: Serine/threonine-protein kinase D3 (Homo sapiens) (UniProt O94806); assay: Binding affinity to wild-type human partial length PRKD3 (S543 to E863 residues) expressed in bacterial expression system assessed as residual binding level at 10 uM by Kinomescan method relative to control
[9] = target: Tyrosine-protein kinase Tec (Homo sapiens) (UniProt P42680); assay: Binding affinity to wild-type human partial length TEC (L341 to D620 residues) expressed in bacterial expression system assessed as residual binding level at 10 uM by Kinomescan method relative to control
[10] = target: Cyclin-dependent kinase 9 (Homo sapiens) (UniProt P50750); assay: Binding affinity to wild-type human full length CDK9 (M1 to F372 residues) expressed in bacterial expression system assessed as residual binding level at 10 uM by Kinomescan method relative to control
[11] = target: Proto-oncogene tyrosine-protein kinase receptor Ret (Homo sapiens) (UniProt P07949); assay: Binding affinity to wild-type human partial length RET (E713 to D1014 residues) expressed in bacterial expression system assessed as residual binding level at 10 uM by Kinomescan method relative to control
[12] = system: Receptor-type tyrosine-protein kinase FLT3 (Homo sapiens), P36888 [UNDEFINED MUTATION]; assay: Binding affinity to human partial length FLT3 ITD/D835V double mutant expressed in bacterial expression system assessed as residual binding level at 10 uM by Kinomescan method relative to control
[13] = target: Serine/threonine-protein kinase 32A (Homo sapiens) (UniProt Q8WU08); assay: Binding affinity to wild-type human full length YANK1 (M1 to L396 residues) expressed in mammalian expression system assessed as residual binding level at 10 uM by Kinomescan method relative to control
[14] = target: RAF proto-oncogene serine/threonine-protein kinase (Homo sapiens) (UniProt P04049); assay: Binding affinity to wild-type human partial length RAF1 (I330 to T640 residues) expressed in bacterial expression system assessed as residual binding level at 10 uM by Kinomescan method relative to control
[15] = target: Fibroblast growth factor receptor 1 (Homo sapiens) (UniProt P11362); assay: Binding affinity to wild-type human partial length FGFR1 (P357 to V669 residues) expressed in bacterial expression system assessed as residual binding level at 10 uM by Kinomescan method relative to control
[16] = system: Epidermal growth factor receptor (Homo sapiens), P00533 [G719C]; assay: Binding affinity to human partial length EGFR G719C mutant (R669 to V1011 residues) expressed in bacterial expression system assessed as residual binding level at 10 uM by Kinomescan method relative to control
[17] = system: Tyrosine-protein kinase ABL1 (Homo sapiens), P00519 [F317L]; assay: Binding affinity to human phosphorylated ABL1 F317L mutant (S229 to K512 residues) expressed in mammalian expression system assessed as residual binding level at 10 uM by Kinomescan method relative to control
[18] = target: Hepatocyte growth factor receptor (Homo sapiens) (UniProt P08581); assay: Binding affinity to wild-type human partial length MET (D1010 to S1367 residues) expressed in bacterial expression system assessed as residual binding level at 10 uM by Kinomescan method relative to control
[19] = target: MAP kinase-activated protein kinase 5 (Homo sapiens) (UniProt Q8IW41); assay: Binding affinity to wild-type human partial length MAPKAPK5 (M1 to D322 residues) expressed in mammalian expression system assessed as residual binding level at 10 uM by Kinomescan method relative to control
[20] = target: Myosin light chain kinase 2, skeletal/cardiac muscle (Homo sapiens) (UniProt Q9H1R3); assay: Binding affinity to wild-type human partial length MYLK2 (D258 to K570 residues) expressed in bacterial expression system assessed as residual binding level at 10 uM by Kinomescan method relative to control
[21] = target: Ephrin type-B receptor 6 (Homo sapiens) (UniProt O15197); assay: Binding affinity to wild-type human partial length EPHB6 (Q634 to P948 residues) expressed in mammalian expression system assessed as residual binding level at 10 uM by Kinomescan method relative to control
[22] = target: Serine/threonine-protein kinase 32B (Homo sapiens) (UniProt Q9NY57); assay: Binding affinity to wild-type human full length YANK2 (M1 to S414 residues) expressed in bacterial expression system assessed as residual binding level at 10 uM by Kinomescan method relative to control
[23] = target: Death-associated protein kinase 2 (Homo sapiens) (UniProt Q9UIK4); assay: Binding affinity to wild-type human full length DAPK2 (M1 to S370 residues) expressed in bacterial expression system assessed as residual binding level at 10 uM by Kinomescan method relative to control
[24] = target: Protein-tyrosine kinase 2-beta (Homo sapiens) (UniProt Q14289); assay: Binding affinity to wild-type human full length PYK2 (M1 to E967 residues) expressed in bacterial expression system assessed as residual binding level at 10 uM by Kinomescan method relative to control

O=C(Nc1cc(-c2cn(CCNc3c4c(nc5ccccc35)CCCC4)nn2)ccn1)Nc1cccc2c1C1CCCCN1C2=O (racemic)
Activity [1]: 84% | Activity [2]: 23% | Activity [3]: 25% | Activity [4]: 77% | Activity [5]: 78% | Activity [6]: 18% | Activity [7]: 100% | Activity [8]: 12% | Activity [9]: 93% | Activity [10]: 3.8% | Activity [11]: 39% | Activity [12]: 0.23% | Activity [13]: 95% | Activity [14]: 97% | Activity [15]: 27% | Activity [16]: 78% | Activity [17]: 20% | Activity [18]: 57% | Activity [19]: 42% | Activity [20]: 24% | Activity [21]: 13% | Activity [22]: 100% | Activity [23]: 72% | Activity [24]: 74%
